{"source": "ChEMBL document CHEMBL5126529", "about": "“Drug discovery of histone lysine demethylases (KDMs) inhibitors (progress from 2018 to present)” (Eur J Med Chem, 2022)", "key": {"[1]": {"target": "Lysine-specific demethylase 3B (Homo sapiens, UniProt Q7LBC6)", "sequence (Q7LBC6 whole entry)": "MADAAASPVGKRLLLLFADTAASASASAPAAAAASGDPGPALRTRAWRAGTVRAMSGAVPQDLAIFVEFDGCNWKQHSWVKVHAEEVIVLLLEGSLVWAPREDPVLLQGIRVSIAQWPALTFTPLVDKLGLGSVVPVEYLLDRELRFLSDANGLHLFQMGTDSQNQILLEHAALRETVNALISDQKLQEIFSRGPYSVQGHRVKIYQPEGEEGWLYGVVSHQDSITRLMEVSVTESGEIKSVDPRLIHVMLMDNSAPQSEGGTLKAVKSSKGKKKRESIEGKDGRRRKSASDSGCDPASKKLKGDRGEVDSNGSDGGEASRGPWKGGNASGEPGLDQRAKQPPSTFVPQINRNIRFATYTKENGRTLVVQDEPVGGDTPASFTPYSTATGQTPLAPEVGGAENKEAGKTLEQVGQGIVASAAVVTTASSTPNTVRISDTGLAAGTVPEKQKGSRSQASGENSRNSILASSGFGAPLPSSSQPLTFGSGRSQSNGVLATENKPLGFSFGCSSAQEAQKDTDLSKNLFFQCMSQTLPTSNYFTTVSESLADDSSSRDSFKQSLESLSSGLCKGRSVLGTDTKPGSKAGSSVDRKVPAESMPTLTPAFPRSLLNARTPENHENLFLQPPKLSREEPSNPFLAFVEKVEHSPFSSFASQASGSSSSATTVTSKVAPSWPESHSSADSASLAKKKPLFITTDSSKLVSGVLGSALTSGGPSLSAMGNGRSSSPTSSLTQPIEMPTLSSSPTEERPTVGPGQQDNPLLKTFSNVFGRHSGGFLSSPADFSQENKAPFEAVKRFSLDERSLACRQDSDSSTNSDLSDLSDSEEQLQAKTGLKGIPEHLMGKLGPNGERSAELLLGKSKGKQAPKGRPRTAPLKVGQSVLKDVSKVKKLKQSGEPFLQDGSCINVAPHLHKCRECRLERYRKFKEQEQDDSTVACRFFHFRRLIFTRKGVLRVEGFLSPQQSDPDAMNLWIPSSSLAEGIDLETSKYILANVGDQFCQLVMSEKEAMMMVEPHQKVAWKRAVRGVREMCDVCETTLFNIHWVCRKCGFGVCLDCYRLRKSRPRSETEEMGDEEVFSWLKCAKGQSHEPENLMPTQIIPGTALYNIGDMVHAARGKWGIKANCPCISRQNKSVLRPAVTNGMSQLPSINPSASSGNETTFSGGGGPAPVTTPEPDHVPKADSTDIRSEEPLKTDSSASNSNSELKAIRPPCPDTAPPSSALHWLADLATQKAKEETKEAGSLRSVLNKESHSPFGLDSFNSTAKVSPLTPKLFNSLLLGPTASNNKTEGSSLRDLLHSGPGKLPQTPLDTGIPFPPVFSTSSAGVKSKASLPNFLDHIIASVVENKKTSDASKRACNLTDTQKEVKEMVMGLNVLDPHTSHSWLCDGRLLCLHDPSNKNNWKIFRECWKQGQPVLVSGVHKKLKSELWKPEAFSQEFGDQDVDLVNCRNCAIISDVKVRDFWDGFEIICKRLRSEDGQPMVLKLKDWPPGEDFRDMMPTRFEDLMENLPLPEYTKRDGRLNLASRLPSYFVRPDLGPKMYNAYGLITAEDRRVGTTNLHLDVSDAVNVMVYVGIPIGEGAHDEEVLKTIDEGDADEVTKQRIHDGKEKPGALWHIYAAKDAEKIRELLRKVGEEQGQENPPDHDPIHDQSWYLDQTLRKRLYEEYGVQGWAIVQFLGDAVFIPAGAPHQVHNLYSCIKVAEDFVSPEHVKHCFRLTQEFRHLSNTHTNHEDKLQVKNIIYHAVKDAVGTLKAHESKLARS", "assay": "Binding affinity to CM7 sensor chip immobilized full-length KDM3B (unknown origin) expressed in Sf9 insect cells assessed as dissociation constant incubated for 60 secs by SPR analysis"}, "[2]": {"target": "Probable JmjC domain-containing histone demethylation protein 2C (Homo sapiens, UniProt Q15652)", "sequence (Q15652 whole entry, the tested form may be a part)": "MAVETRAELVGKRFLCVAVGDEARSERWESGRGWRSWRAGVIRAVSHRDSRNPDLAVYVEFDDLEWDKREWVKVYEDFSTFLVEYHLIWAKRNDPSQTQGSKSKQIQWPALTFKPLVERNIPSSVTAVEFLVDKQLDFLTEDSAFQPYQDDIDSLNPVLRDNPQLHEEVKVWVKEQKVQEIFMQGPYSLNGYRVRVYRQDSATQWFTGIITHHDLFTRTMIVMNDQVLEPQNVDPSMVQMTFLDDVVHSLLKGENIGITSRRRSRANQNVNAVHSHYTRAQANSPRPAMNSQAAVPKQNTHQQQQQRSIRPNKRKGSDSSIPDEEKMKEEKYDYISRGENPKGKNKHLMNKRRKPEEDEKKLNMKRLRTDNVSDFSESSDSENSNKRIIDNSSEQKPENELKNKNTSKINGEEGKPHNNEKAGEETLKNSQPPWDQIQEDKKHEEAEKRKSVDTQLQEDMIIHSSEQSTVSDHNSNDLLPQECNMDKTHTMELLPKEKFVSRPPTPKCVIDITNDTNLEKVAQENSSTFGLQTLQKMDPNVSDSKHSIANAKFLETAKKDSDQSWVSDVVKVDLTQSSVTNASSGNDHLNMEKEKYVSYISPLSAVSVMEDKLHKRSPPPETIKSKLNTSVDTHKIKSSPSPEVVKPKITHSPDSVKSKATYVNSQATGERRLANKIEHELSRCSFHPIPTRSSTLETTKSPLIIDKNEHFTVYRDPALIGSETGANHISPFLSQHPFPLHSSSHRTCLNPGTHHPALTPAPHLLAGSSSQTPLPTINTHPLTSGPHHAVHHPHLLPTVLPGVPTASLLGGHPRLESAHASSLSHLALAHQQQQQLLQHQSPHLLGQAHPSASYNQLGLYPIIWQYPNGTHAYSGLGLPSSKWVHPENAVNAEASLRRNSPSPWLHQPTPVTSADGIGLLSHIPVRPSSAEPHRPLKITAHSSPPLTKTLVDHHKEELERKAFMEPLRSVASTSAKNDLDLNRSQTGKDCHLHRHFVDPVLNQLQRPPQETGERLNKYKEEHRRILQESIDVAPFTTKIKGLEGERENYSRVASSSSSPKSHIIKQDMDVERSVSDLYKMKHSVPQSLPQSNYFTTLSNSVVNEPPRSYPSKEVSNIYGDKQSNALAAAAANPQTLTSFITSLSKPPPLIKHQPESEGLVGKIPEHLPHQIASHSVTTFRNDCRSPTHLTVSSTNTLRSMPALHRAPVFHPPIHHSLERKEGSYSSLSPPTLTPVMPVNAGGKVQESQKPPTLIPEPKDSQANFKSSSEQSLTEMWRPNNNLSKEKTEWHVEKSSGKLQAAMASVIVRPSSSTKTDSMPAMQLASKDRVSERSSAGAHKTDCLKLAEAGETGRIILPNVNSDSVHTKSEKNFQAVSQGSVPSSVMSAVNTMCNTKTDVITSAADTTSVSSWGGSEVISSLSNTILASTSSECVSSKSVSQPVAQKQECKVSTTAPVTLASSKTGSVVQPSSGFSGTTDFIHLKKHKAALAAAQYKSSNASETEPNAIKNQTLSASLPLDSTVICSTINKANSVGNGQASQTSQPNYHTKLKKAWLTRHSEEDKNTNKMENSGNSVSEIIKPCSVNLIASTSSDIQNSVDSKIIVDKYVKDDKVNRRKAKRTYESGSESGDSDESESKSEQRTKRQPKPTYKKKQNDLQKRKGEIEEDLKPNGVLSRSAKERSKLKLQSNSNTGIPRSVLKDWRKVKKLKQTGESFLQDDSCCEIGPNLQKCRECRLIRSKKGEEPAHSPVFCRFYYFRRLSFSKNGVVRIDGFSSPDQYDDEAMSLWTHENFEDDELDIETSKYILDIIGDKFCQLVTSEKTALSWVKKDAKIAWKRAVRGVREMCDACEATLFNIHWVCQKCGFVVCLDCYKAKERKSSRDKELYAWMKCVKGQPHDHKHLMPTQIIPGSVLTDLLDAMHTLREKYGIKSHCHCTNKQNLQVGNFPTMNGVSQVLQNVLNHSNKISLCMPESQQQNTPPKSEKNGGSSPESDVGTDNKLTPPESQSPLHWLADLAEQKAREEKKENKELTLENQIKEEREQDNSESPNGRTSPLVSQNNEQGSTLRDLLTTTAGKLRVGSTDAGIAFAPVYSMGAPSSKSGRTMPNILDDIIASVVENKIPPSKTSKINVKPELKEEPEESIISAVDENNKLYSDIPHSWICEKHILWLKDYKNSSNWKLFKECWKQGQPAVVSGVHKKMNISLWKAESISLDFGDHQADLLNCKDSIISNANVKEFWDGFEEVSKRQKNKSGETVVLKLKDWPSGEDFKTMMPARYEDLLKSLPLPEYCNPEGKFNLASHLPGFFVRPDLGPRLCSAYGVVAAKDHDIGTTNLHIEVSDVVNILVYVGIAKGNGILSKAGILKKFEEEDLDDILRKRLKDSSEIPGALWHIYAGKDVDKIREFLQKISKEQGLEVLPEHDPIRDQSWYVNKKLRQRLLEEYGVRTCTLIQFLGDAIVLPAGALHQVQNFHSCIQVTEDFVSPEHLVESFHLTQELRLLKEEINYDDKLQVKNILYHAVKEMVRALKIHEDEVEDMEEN", "assay": "Binding affinity to CM7 sensor chip immobilized partial-length JMJD1C (2274 to 2498 residues) (unknown origin) expressed in Escherichia coli assessed as dissociation constant incubated for 60 secs by SPR analysis"}, "[3]": {"target": "T1, Lysine-specific histone demethylase 1A (Homo sapiens, UniProt O60341)", "assay": "Inhibition of recombinant human KDM1A (158 to 852 residues) using H3K4Me2 peptide as substrate preincubated for 15 mins followed by substrate addition measured after 60 mins by AlphaLISA assay"}, "[4]": {"target": "Lysine-specific demethylase 6B (Homo sapiens, UniProt O15054)", "assay": "Binding affinity to KDM6B (unknown origin) assessed as inhibition constant"}, "[5]": {"target": "T1, Lysine-specific histone demethylase 1A", "assay": "Inhibition of KDM1A (unknown origin) by fluorescence based assay"}, "[6]": {"target": "T2, MAO-A (Homo sapiens, UniProt P21397)", "T2 sequence (P21397 whole entry)": "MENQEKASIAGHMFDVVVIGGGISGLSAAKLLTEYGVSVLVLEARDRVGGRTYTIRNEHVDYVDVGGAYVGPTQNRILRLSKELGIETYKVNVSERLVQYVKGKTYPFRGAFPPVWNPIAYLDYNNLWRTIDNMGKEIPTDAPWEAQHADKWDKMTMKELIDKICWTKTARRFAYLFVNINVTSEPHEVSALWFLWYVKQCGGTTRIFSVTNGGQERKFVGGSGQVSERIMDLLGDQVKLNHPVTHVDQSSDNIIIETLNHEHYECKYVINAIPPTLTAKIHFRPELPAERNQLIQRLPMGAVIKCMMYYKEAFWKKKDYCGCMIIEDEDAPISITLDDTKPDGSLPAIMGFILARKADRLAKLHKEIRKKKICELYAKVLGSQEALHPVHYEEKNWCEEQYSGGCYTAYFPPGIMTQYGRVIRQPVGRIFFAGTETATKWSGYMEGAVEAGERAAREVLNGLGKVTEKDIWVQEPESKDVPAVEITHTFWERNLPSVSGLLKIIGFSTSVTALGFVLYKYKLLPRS", "assay": "Inhibition of recombinant MAO-A (unknown origin) using luciferin substrate at 100 uM preincubated for 15 mins followed by substrate addition measured after 1 hr by luciferase based assay relative to control", "settings": "probe luciferin substrate, time 75 min"}, "[7]": {"target": "T3, MAO-B (Homo sapiens, UniProt P27338)", "T3 sequence (P27338 whole entry)": "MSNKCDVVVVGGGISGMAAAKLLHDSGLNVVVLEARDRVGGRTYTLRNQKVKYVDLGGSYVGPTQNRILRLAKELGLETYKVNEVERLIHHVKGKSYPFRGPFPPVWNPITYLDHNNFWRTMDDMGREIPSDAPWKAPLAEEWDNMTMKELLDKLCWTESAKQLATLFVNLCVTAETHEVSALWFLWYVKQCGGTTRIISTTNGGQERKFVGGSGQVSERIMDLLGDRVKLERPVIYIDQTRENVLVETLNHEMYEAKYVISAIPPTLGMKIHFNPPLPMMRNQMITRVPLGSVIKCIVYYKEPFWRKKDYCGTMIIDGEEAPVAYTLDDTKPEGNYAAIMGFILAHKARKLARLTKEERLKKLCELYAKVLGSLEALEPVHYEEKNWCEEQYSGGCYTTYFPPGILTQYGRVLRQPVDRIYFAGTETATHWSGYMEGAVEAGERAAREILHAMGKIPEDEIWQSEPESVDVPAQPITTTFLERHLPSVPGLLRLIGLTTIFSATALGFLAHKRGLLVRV", "assay": "Inhibition of recombinant MAO-B (unknown origin) using luciferin substrate at 100 uM preincubated for 15 mins followed by substrate addition measured after 1 hr by luciferase based assay relative to control", "settings": "probe luciferin substrate, time 75 min"}, "[8]": {"target": "T1, Lysine-specific histone demethylase 1A", "assay": "Inhibition of recombinant human KDM1A using fluorogenic substrate incubated for 30 mins followed by substrate addition measured after 10 mins by fluorescence based assay"}, "[9]": {"target": "T4, Amine oxidase [flavin-containing] B (Homo sapiens, UniProt P27338)", "T4 sequence (P27338 whole entry)": "T3 sequence (P27338 whole entry)"}, "[10]": {"target": "T3, MAO-B", "assay": "Inhibition of MAO-B (unknown origin) at 10 uM relative to control"}, "[11]": {"target": "T2, MAO-A", "assay": "Inhibition of MAO-A (unknown origin) at 10 uM relative to control"}, "[12]": {"target": "Lysine-specific demethylase 5C (Homo sapiens, UniProt P41229)", "assay": "Inhibition of N-terminal FLAG/His-tagged full-length human KDM5C (2 to 1560 residues) expressed in baculovirus infected Sf9 insect cells using peptide substrate at 10 uM incubated for 2 hrs by Alpha Screen assay relative to control"}, "[13]": {"target": "T1, Lysine-specific histone demethylase 1A"}}, "data": [{"smiles": "CC(=O)Nc1ccc(S(=O)(=O)N[C@H]2CO[C@H]3[C@@H]2OC[C@@H]3Nc2nccc(-c3cccc(F)c3)n2)cc1", "values": [{"measurement": "Kd", "setting": "[1]", "result": 16.3, "unit": "µM"}, {"measurement": "Kd", "setting": "[2]", "result": 26.7, "unit": "µM"}]}, {"smiles": "COCc1cccc(NC(=O)c2cc3ccccc3n2C)c1COc1ccc(OCC2CCNCC2)cc1", "values": [{"measurement": "IC50", "setting": "[3]", "result": 4, "unit": "µM"}]}, {"smiles": "O=C(O)[C@H](O)Cc1ccc(O)c(O)c1", "values": [{"measurement": "Ki", "setting": "[4]", "result": 7.11, "unit": "µM"}]}, {"smiles": "O=C(/C=C/c1ccc(O)c2c1[C@H](C(=O)OC(Cc1ccc(O)c(O)c1)C(=O)O)[C@@H](c1ccc(O)c(O)c1)O2)O[C@H](Cc1ccc(O)c(O)c1)C(=O)O", "note": "(stereo partly drawn)", "values": [{"measurement": "IC50", "setting": "[5]", "result": 0.11, "unit": "µM"}]}, {"smiles": "Cc1ccc(-c2nc(SCc3cn(CC(=O)NC(=O)Nc4ccccn4)nn3)nc(Nc3cccc(C(F)(F)F)c3)c2C#N)cc1", "values": [{"measurement": "inhibition at 1 h, 100 µM", "setting": "[6]", "result": "< 5", "unit": "%"}, {"measurement": "inhibition at 1 h, 100 µM", "setting": "[7]", "result": "< 5", "unit": "%"}]}, {"smiles": "Cn1c(C(=O)Nc2cccc3c2N(Cc2ccc(OC4CCNCC4)cc2)CCC3)cc2ccccc21", "values": [{"measurement": "IC50", "setting": "[8]", "result": 0.05, "unit": "µM"}]}, {"smiles": "O=C(c1ccc(OCCN2CCCCC2)cc1)c1c(-c2ccc(O)cc2)sc2cc(O)ccc12", "note": "[RALOXIFENE]", "values": [{"measurement": "IC50", "setting": "[9]", "result": "> 200", "unit": "µM"}]}, {"smiles": "COc1cc2c(cc1OC)-c1c(C)c3ccc(OC)c(OC)c3c[n+]1CC2", "note": "[DEHYDROCORYDALINE]", "values": [{"measurement": "IC50", "setting": "[5]", "result": 2.44, "unit": "µM"}]}, {"smiles": "COc1ccc(-c2coc3cc(O)cc(O)c3c2=O)cc1", "note": "[BIOCHANIN]", "values": [{"measurement": "inhibition at 10 µM", "setting": "[10]", "result": 36.8, "unit": "%"}, {"measurement": "inhibition at 10 µM", "setting": "[11]", "result": 23.5, "unit": "%"}]}, {"smiles": "COC(=O)c1ccnc(-c2cn(CCN(C)CCCCCCCCCCOc3cccc4c3C(=O)N(C3CCC(=O)NC3=O)C4=O)nn2)c1", "note": "(stereo not drawn)", "values": [{"measurement": "inhibition", "setting": "[12]", "result": 14, "unit": "%"}]}, {"smiles": "CC(=O)Nc1ccc(S(=O)(=O)N[C@H]2CO[C@H]3[C@@H]2OC[C@@H]3Nc2nccc(-c3cccc(C(C)(C)C)c3)n2)cc1", "values": [{"measurement": "Kd", "setting": "[1]", "result": 7.79, "unit": "µM"}, {"measurement": "Kd", "setting": "[2]", "result": 8.06, "unit": "µM"}]}, {"smiles": "CCOC(=O)C(c1cc(OC)c(OC)cc1O)N1CCOCC1", "note": "(stereo not drawn)", "values": [{"measurement": "IC50", "setting": "[13]", "result": 0.296, "unit": "µM"}]}, {"smiles": "CC(=O)Nc1ccc(S(=O)(=O)N[C@H]2CO[C@H]3[C@@H]2OC[C@@H]3Nc2nccc(-c3ccccc3)n2)cc1", "values": [{"measurement": "Kd", "setting": "[1]", "result": 0.13, "unit": "µM"}, {"measurement": "Kd", "setting": "[2]", "result": 2.7, "unit": "µM"}]}]}
